The test system of one data set is brain levels of total Aβ. Put plainly: In vivo efficacy: brain Aβtotal lowering (ELISA). Also noted: species or system mouse. To be noted: 30 mpk, sc, 4 h after administration. From the text: (§1) To determine whether acute administration of an Aβ42 peptide lowering agent would reduce Aβ peptide levels in vivo, non-transgenic rodents, e.g. mice or rats were used. Animals treated with the Aβ peptide lowering agent were examined and compared to those untreated or treated with vehicle and brain levels of soluble Aβ42 and total Aβ were quantitated by standard techniques, for example, using ELISA. Treatment periods varied from hours (h) to days and were adjusted based on the results of the Aβ42 lowering once a time course of onset of effect could be established.
(§2) A typical protocol for measuring Aβ42 lowering in vivo is shown but it is only one of many variations that could be used to optimize the levels of detectable Aβ. For example, Aβ peptide lowering compounds were formulated in 20% hydroxypropyl β cyclodextrin. The Aβ peptide lowering agents were administered as a single oral dose (p.o.) or a single subcutaneous dose (s.c.) to overnight fasted animals. After a certain time, usually 2 or 4 h (as indicated in Table 19), the animals were sacrificed and Aβ42 levels were analysed.
(§3) Blood was collected by decapitation and exsanguinations in EDTA-treated collection tubes. […] The left hemisphere was stored at −18° C. for quantitative analysis of test compound levels. […]
(§4) Mouse brains from non-transgenic animals were resuspended in 8 volumes of 0.4% DEA (diethylamine)/50 mM NaCl containing protease inhibitors (Roche-11873580001 or 04693159001) per gram of tissue, e.g. for 0.158 g brain, add 1.264 ml of 0.4% DEA. […] Nine parts of supernatant were neutralized with 1 part 0.5 M Tris-HCl pH 6.8 and used to quantify Aβtotal and Aβ42.
To quantify the amount of Aβtotal and Aβ42 in the soluble fraction of the brain homogenates, Enzyme-Linked-Immunosorbent-Assays were used. […] Following this incubation and subsequent wash steps the ELISA for Aβ42 quantification was finished by addition of Quanta Blu fluorogenic peroxidase substrate according to the manufacturer's instructions (Pierce Corp., Rockford, Ill.). A reading was performed after 10 to 15 min (excitation 320 nm/emission 420 nm). […]
In general terms: ELISA stands for enzyme-linked immunosorbent assay.

Data set [1] deals with T1, recombinant BACE1 protein (Homo sapiens, UniProt P56817).
T1 construct: recombinant BACE1 protein in a final concentration of 1 μg/ml
Put plainly: Biochemical FRET based assay. Conditions: recombinant BACE1 1 μg/ml, 120 min, room temperature, pH 5.0; read-out: Biochemical FRET based assay pIC50 (converted). From the text:
Biochemical FRET Based Assay This assay is a Fluorescence Resonance Energy Transfer Assay (FRET) based assay. The substrate for this assay is an APP derived 13 amino acids peptide that contains the 'Swedish' […] mutation of the amyloid precursor protein (APP) β-secretase cleavage site. […] Upon cleavage by BACE1, the fluorophore Mca is separated from the quenching group Dnp, restoring the full fluorescence yield of the donor. The increase in fluorescence is linearly related to the rate of proteolysis (Koike H et al. J Biochem. 1999, 126, 235-42). Briefly in a 384-well format recombinant BACE1 protein in a final concentration of 1 μg/ml is incubated for 120 minutes at room temperature with 10 μm substrate in incubation buffer (40 mM Citrate buffer pH 5.0, 0.04% PEG, 4% DMSO) in the absence or presence of compound. Next the amount of proteolysis is directly measured by fluorescence measurement at T=0 and T=120 (excitation at 320 nm and emission at 405 nm). […] [formula]

Data set [2] deals with brain levels of soluble Aβ42. Put plainly: In vivo efficacy: brain Aβ42 lowering (ELISA). To be noted: 30 mpk, sc, 4 h after administration. Also noted: species or system mouse.
Text: as §1, §2, §3, §4
To quantify the amount of Aβtotal and Aβ42 in the soluble fraction of the brain homogenates, Enzyme-Linked-Immunosorbent-Assays were used. […] Following this incubation and subsequent wash steps the ELISA for Aβ42 quantification was finished by addition of Quanta Blu fluorogenic peroxidase substrate according to the manufacturer's instructions (Pierce Corp., Rockford, Ill.). A reading was performed after 10 to 15 min (excitation 320 nm/emission 420 nm).

Data set [3] deals with Aβtotal produced and secreted into the medium of human neuroblastoma SKNBE2 cells. Put plainly: Cellular αlisa assay in SKNBE2 cells, Aβtotal. In kind it is cell-based. To be noted: Homo sapiens, SKNBE2, 18 h, SKNBE2 cells expressing hAPP695, 18 hours incubation; read-out: Cellular αlisa assay in SKNBE2 cells Aβtotal pIC50 (converted). The procedure:
(§5) Cellular αlisa Assay in SKNBE2 Cells In two αlisa assays the levels of Aβtotal and Aβ42 produced and secreted into the medium of human neuroblastoma SKNBE2 cells are quantified. The assay is based on the human neuroblastoma SKNBE2 expressing the wild type Amyloid Precursor Protein (hAPP695). […] Aβtotal and Aβ42 are measured by sandwich α[…] sandwich assay using biotinylated antibody AbN/25 attached to streptavidin coated beads and antibody Ab4G8 or cAb42/26 conjugated acceptor beads for the detection of Aβtotal and Aβ42 respectively. In the presence of Aβtotal or Aβ42, the beads come into close proximity. The excitation of the Donor beads provokes the release of singlet oxygen molecules that triggers a cascade of energy transfer in the Acceptor beads, resulting in light emission. Light emission is measured after 1 hour incubation (excitation at […] and emission at 615 nm). A best-fit curve is fitted by a minimum sum of squares method to the plot of % Controlmin versus compound concentration. […] [formula]

The subject of data set [4] is Aβ42 produced and secreted into the medium of human neuroblastoma SKNBE2 cells. Put plainly: Cellular αlisa assay in SKNBE2 cells, Aβ42. To be noted: Homo sapiens, SKNBE2, 18 h, SKNBE2 cells expressing hAPP695, 18 hours incubation; read-out: Cellular αlisa assay in SKNBE2 cells Aβ42 pIC50 (converted). In kind it is cell-based. The procedure:
as §5

T1 sequence (P56817 46-501): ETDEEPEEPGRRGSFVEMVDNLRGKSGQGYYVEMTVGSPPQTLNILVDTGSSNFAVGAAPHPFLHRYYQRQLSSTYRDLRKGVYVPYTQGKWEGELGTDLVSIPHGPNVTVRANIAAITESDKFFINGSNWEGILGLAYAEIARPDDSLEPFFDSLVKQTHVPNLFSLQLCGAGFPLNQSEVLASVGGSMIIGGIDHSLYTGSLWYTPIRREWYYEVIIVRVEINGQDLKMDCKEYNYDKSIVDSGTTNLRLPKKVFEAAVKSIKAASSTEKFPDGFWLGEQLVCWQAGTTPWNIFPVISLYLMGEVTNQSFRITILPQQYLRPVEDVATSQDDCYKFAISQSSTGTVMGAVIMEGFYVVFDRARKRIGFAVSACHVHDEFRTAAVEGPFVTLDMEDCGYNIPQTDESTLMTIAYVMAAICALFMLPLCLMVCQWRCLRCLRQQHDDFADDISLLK

`COc1cncc(-c2cccc(C3(C)N=C(N)Cn4nccc43)c2)c1` (racemic) [Compound 2, rac-4-[3-(5-methoxypyridin-3-yl)-phenyl]-4-methyl-4,7-dihydropyrazolo[1,5-a]pyrazin-6-amine] registered a melting point of 191.8 °C. The “Aβtotal (% Ctrl)_Mean” value in the data set with brain levels of total Aβ is 116 % Ctrl. In addition, the IC50 in data set [1] is 1660 nM. In addition, the “Aβ42 (% Ctrl)_Mean” value in data set [2] is reported as 109 % Ctrl. Moreover, the IC50 in data set [3] is 105 nM. In data set [4], the IC50 was 112 nM.

A word on the melting point: it is the temperature of the solid-liquid transition.

The values are drawn from patent publication US8609660B2, “4,7-dihydro-pyrazolo[1,5-a]pyrazin-6-ylamine derivatives useful as inhibitors of beta-secretase (BACE)” (Janssen Pharmaceutica NV, priority 2010, dated 2013).
